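The compound was tested at five concentrations on cells cultured in 96-well plates, with a 48-hour exposure period. GI50 marks 50% less growth.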 Activity calls are given as the source filed them. Rule as the data show it: active = GI50 up to about 1.1 µM and inactive = higher.
Assays:
Test in all cases: NCI tumour cell line growth inhibition, 48 h
RPMI-8226 = tested on: RPMI-8226
EKVX = tested on: EKVX
MDA-MB-231 = tested on: MDA-MB-231
MOLT-4 = tested on: MOLT-4
MCF7 = tested on: MCF7
A549 = tested on: A549
SN12C = tested on: SN12C
LOX IMVI = tested on: LOX IMVI
KM12 = tested on: KM12
UACC-62 = tested on: UACC-62
SF-268 = tested on: SF-268
SK-MEL-2 = tested on: SK-MEL-2
DU-145 = tested on: DU-145
SR = tested on: SR
Hs-578T = tested on: Hs-578T
SW-620 = tested on: SW-620
SF-539 = tested on: SF-539
T47D = tested on: T47D
UO-31 = tested on: UO-31
HL-60 = tested on: HL-60

SMILES	GI50 (RPMI-8226)	GI50 (EKVX)	GI50 (MDA-MB-231)	GI50 (MOLT-4)	GI50 (MCF7)	GI50 (A549)	GI50 (SN12C)	GI50 (LOX IMVI)	GI50 (KM12)	GI50 (UACC-62)	GI50 (SF-268)	GI50 (SK-MEL-2)	GI50 (DU-145)	GI50 (SR)	GI50 (Hs-578T)	GI50 (SW-620)	GI50 (SF-539)	GI50 (T47D)	GI50 (UO-31)	GI50 (HL-60)
CCOC(=O)c1cn2c(n1)sc1c(Cl)c(Cl)ccc12	5.02 µM (inactive)	31 µM (inactive)	26.7 µM (inactive)	8.71 µM (inactive)	11.1 µM (inactive)	15.1 µM (inactive)	3.45 µM (inactive)	13.2 µM (inactive)	5.36 µM (inactive)	20.2 µM (inactive)	16.9 µM (inactive)	27.4 µM (inactive)	18.1 µM (inactive)	2.55 µM (inactive)	5.33 µM (inactive)	5.13 µM (inactive)	6.76 µM (inactive)	0.91 µM (active)	13.4 µM (inactive)	
Cc1cc(C)cc(Nc2cc(O)nc(O)n2)c1	> 100 µM (inactive)	> 100 µM (inactive)	> 100 µM (inactive)	> 100 µM (inactive)	> 100 µM (inactive)	> 100 µM (inactive)	> 100 µM (inactive)	> 100 µM (inactive)	> 100 µM (inactive)		> 100 µM (inactive)		> 100 µM (inactive)	> 100 µM (inactive)	> 100 µM (inactive)	> 100 µM (inactive)	> 100 µM (inactive)	0.0649 µM (active)	> 100 µM (inactive)	> 100 µM (inactive)
O=C1C=CC(=O)c2c1ccc1c3ccccc3n(CCCCCCCCn3c4ccccc4c4ccc5c(c43)C(=O)C=CC5=O)c21	> 100 µM (inactive)	> 100 µM (inactive)	> 100 µM (inactive)	85.7 µM (inactive)	> 100 µM (inactive)	> 100 µM (inactive)	> 100 µM (inactive)	> 100 µM (inactive)	> 100 µM (inactive)	> 100 µM (inactive)	> 100 µM (inactive)	> 100 µM (inactive)	> 100 µM (inactive)		30.8 µM (inactive)	> 100 µM (inactive)	> 100 µM (inactive)	> 100 µM (inactive)		> 100 µM (inactive)
C[C@H]1O[C@@H](C(C)(C)C)OC(=O)[C@@H]1C(OC(=O)c1ccccc1)c1cccc2ccccc12 (stereo partly drawn)	> 100 µM (inactive)	> 100 µM (inactive)	> 100 µM (inactive)	> 100 µM (inactive)	> 100 µM (inactive)	> 100 µM (inactive)	> 100 µM (inactive)	> 100 µM (inactive)	> 100 µM (inactive)	> 100 µM (inactive)	> 100 µM (inactive)	> 100 µM (inactive)		48.4 µM (inactive)	40.7 µM (inactive)	> 100 µM (inactive)	> 100 µM (inactive)	64.1 µM (inactive)	> 100 µM (inactive)	
Cc1ccnc2nc(-c3ccc4ccccc4c3)cc(O)c12	0.641 µM (active)	4.36 µM (inactive)	1.67 µM (inactive)	0.479 µM (active)	0.258 µM (active)	1.4 µM (inactive)	4.01 µM (inactive)	0.818 µM (active)	0.452 µM (active)	0.531 µM (active)	3.1 µM (inactive)	0.865 µM (active)	4.1 µM (inactive)	0.296 µM (active)	1.44 µM (inactive)	0.451 µM (active)	1.22 µM (inactive)	7.82 µM (inactive)	3.26 µM (inactive)	
COC(=O)C1=C(C(=O)OC)c2cc(OC)ccc2C(C(=S)N(C)C)S1 (stereo not drawn)	> 100 µM (inactive)	> 100 µM (inactive)	> 100 µM (inactive)	> 100 µM (inactive)	> 100 µM (inactive)	> 100 µM (inactive)	> 100 µM (inactive)	> 100 µM (inactive)	> 100 µM (inactive)	> 100 µM (inactive)	> 100 µM (inactive)	> 100 µM (inactive)	> 100 µM (inactive)	> 100 µM (inactive)	> 100 µM (inactive)	> 100 µM (inactive)		> 100 µM (inactive)	> 100 µM (inactive)	
O=C(NCCCCN(CCCNC(=O)C(F)(F)F)Cc1ccccc1)C(F)(F)F	> 100 µM (inactive)	> 100 µM (inactive)	> 100 µM (inactive)	> 100 µM (inactive)	> 100 µM (inactive)	> 100 µM (inactive)	> 100 µM (inactive)		> 100 µM (inactive)	> 100 µM (inactive)	> 100 µM (inactive)	> 100 µM (inactive)	> 100 µM (inactive)		> 100 µM (inactive)	> 100 µM (inactive)	> 100 µM (inactive)	> 100 µM (inactive)	> 100 µM (inactive)	> 100 µM (inactive)

From ChEMBL document CHEMBL1201862, “PubChem BioAssay data set” (2004)
